# Values of other authors, collected in patent US20160367500A1 (FERTILIFY INC., priority 2013, published 2016).
# Where two headings read alike, the source gives them in different places.
# Legend:
# [1] = test system: aged female mice
# [2] = fortification of food with folic acid
# [3] = test system: mouse hepatocyte mitochondria
# [4] = test system: methylglyoxal-treated oocytes
# [5] = not given; remark: listed apart in the source
# [6] = test system: anti-Müllerian hormone (AMH); settings: women with sufficient levels of vitamin D
# [7] = test system: female rats
# [8] = test system: ROS-mediated embryo-toxicity in cultures; settings: vitamin C and vitamin E together, ex-vivo murine models
# [9] = diet deficient in vitamin D versus vitamin D sufficient diet (Halloran 1980)
compound,measurement,setting,value
"COC1=C(OC)C(=O)C(C/C=C(\C)CC/C=C(\C)CC/C=C(\C)CC/C=C(\C)CC/C=C(\C)CC/C=C(\C)CC/C=C(\C)CC/C=C(\C)CC/C=C(\C)CCC=C(C)C)=C(C)C1=O [Coenzyme Q10, coenzyme Q10]",safely tolerable dose,in vivo,up to 1200 mg per day
same,litter size,"[1]; 52-week-old mice, versus control groups without coenzyme Q10",significantly larger litter sizes
same,number of ovulated eggs after stimulation,[1]; aged female mice,significantly increases the number of ovulated eggs
"Nc1nc2ncc(CNc3ccc(C(=O)N[C@@H](CCC(=O)O)C(=O)O)cc3)nc2c(=O)[nH]1 [Folic Acid, folic acid]",rate of neural-tube defects,[2],significant reduction in the rate of neural-tube defects
"O=C(O)c1cc(C(=O)O)c2c(n1)C(=O)C(=O)c1cc(C(=O)O)[nH]c1-2 [PQQ, pyrroloquinoline quinone]",upper limit (in words),adults over the age of 18,(no known upper limit)
same,mitochondrial biogenesis,[3]; aging cells,promotes the spontaneous generation of new mitochondria within aging cells
same,protection from oxidative stress,[3]; mouse hepatocyte mitochondria,protects mouse hepatocyte mitochondria from oxidative stress
"Oc1ccc(C=Cc2cc(O)cc(O)c2)cc1 [Resveratrol, resveratrol]","adverse effects caused by methylglyoxal (inhibition of oocyte maturation, disruption of spindle assembly)",[4],can alleviate the adverse effects caused by methylglyoxal
same,"excessive ROS production, aberrant mitochondrial distribution, high level lipid peroxidation",[4]; methylglyoxal-induced cytotoxic changes,can block these cytotoxic changes
same,DNA double strands breaks,[4]; methylglyoxal-treated oocytes,decreased
vitamin D,pregnancy rate per IVF cycle,[5]; women whose vitamin D levels were insufficient or deficient,34.7%
same,pregnancy rate per IVF cycle,[5]; women with sufficient levels of vitamin D,52.5%
same,AMH levels,[6],increased levels of anti-Müllerian hormone (AMH)
same,reduction of fertility,[7]; [9],75%
same,reduction of litter size,[7]; [9],30%
same,litter size,[7]; diet lacking vitamin D before mating versus diet containing vitamin D (Hickie 1983),significantly smaller litters
vitamin E,tolerable upper limit of intake,Health Canada Nutrition Tables (2013),1000 mg per day
same,IVF,[8],improved IVF
same,rate of embryo development,[8],increased the rate of embryo development
